This passage reports IC50 results from US8008331B2, “Benzothiazol-2-one derivatives as lipase and phospholipase inhibitors” (Sanofi-Aventis, priority 2005, dated 2011).

Usually IC50 stands for the concentration needed to halve the response being measured.

This test concerns the target T1, endothelial lipase (EL) (Homo sapiens, UniProt Q9Y5X9).
T1 construct: made in house; host or cells: recombinant cell lines (CHO, HEK293); concentrated conditioned medium
T1 sequence (Q9Y5X9 21-500): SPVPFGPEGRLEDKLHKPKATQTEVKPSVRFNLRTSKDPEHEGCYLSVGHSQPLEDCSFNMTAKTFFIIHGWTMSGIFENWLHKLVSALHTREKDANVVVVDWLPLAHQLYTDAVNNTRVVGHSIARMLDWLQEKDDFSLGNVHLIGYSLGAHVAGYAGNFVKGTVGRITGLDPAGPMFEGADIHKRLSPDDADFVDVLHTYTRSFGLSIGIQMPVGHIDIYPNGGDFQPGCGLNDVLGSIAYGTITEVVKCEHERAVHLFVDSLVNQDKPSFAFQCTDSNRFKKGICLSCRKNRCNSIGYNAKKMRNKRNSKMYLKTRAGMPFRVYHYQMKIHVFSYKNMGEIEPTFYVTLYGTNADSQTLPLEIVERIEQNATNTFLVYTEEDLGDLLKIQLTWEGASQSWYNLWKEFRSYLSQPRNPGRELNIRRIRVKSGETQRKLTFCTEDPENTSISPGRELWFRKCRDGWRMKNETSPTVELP
The test can be described thus: Further EL inhibition assay. The conditions noted are these: phospholipase substrate (Bodipy-labelled phosphocholine), 37° C., 90 minutes, EL from conditioned medium of recombinant cell lines (CHO, HEK293). It counts as biochemical. From the text:
EL is released as secretory protein in high concentration into cell culture medium (conditioned medium) by recombinant cell lines (CHO, HEK293). This is employed as enzyme solution after concentration.
The enzymatic activity is reduced as a function of the inhibitor concentration used, and the inhibitor concentration at which a half-maximum enzymatic activity is observed is called IC50.
The phospholipase-specific substrate 1,2-bis(4,4-difluoro-5,7-dimethyl-4-bora-3a,4a-diaza-s-indacene-3-undecanoyl)-sn-glycero-3-phosphocholine, (manufacturer Molecular Probes) is used to characterize the enzymatic activity of endothelial lipase and the effect of inhibitors. Hydrolysis of the A1 ester linkage of this phospholipid by the enzyme liberates the fluorescent dye Bodipy which can be detected after separation by thin-layer chromatography on an HPTLC plate (silica gel 60, Merck) or directly in the reaction vessel by measuring the fluorescence.
The substrate solution is prepared by dissolving 100 μg of 1,2-bis(4,4-difluoro-5,7-dimethyl-4-bora-3a,4a-diaza-s-indacene-3-undecanoyl)-sn-glycero-3-phosphocholine (manufacturer Molecular Probes) in 100 μl of DMSO and taking up in 2.4 mg of tripalmitin (Sigma) in 393 μl of chloroform which comprises 20 mg/ml DOP-choline (1,2-dioleoyl-sn-glycero-3-phosphocholine). 39.3 μl of this lipid mixture are transferred into a fresh reaction vessel, and the solvent is evaporated off. The lipid mixture is dissolved in 4 ml of 200 mM TRIS-HCl, 150 mM sodium chloride, pH=7.4, by sonication twice. The subsequent enzymic reaction takes place at 37° C. for 90 minutes. For this purpose, 20 μl of the substrate solution are incubated with 2 μl of inhibitor of appropriate concentration (dissolved in 10% DMSO, using 10% strength DMSO solution for control) and 2 μl of enzyme solution (conditioned medium). The 4 μl of the assay mixture are loaded onto an HPTLC plate (silica gel 60, Merck), and the liberated fluorescent dye is separated for detection with an eluent (diethyl ether:petroleum benzine:acetic acid [78:22:1]). After evaporation of the eluent, the plate is read in a fluorescence scanner. An increased liberation of the fluorescent dye in the uninhibited reaction is to be observed as a measure of the enzymic activity.
Regarding `CCCCCCNC(=O)n1c(=O)sc2ccccc21` [Example 1, 2-Oxobenzothiazole-3-hexylcarboxamide], the IC50 amounted to 0.16 µM.

Consider `CCCCCCCNC(=O)n1c(=O)sc2ccccc21` [Example 2, 2-Oxobenzothiazole-3-heptylcarboxamide], for which the IC50 turned out to be 0.051 µM.

As for `Cc1ccccc1CNC(=O)n1c(=O)sc2ccccc21` [Example 3, 2-Oxobenzothiazole-3-(2-methylbenzyl)carboxamide], the IC50 came to 0.052 µM.

Take `Cc1cccc(CNC(=O)n2c(=O)sc3ccccc32)c1` [Example 4, 2-Oxobenzothiazole-3-(3-methylbenzyl)carboxamide]: the IC50 worked out at 0.215 µM.

For `CCCCCCNC(=O)n1c(=O)sc2cc(Br)ccc21` [Example 5, 6-Bromo-2-oxobenzothiazole-3-hexylcarboxamide], the IC50 was found to be 0.435 µM.

With `CCCCCCCNC(=O)n1c(=O)sc2ccc(Cl)cc21` [Example 6, 5-Chloro-2-oxobenzothiazole-3-heptylcarboxamide], the concentration for half-maximal inhibition (IC50) is 0.014 µM.

Consider `CCCCCCNC(=O)n1c(=O)sc2ccc(C(F)(F)F)cc21` [Example 7, 2-Oxo-5-trifluoromethylbenzothiazole-3-hexylcarboxamide], for which the IC50 turned out to be 0.12 µM.
